According to US20030013690A1, “Increasing phosphorus uptake from the gut of dairy cows by supplementing 1alpha-hydroxylated vitamin D compounds” (priority 2001, published 2003):

Key:
Type in all cases: in vivo
[1] = tested on: lactating dairy cows; test: Dairy cow efficacy trial: feed intake, fecal P excretion, P utilization
Description: (§1) Eight multiparous lactating dairy cows (about 150 days in milk at start of the experiment) were blocked into two groups according to milk yield. Cows in each block were assigned randomly to four different treatments. The experimental design was a 4×4 Latin Square. Each period was four weeks in length. The first three weeks were used as an adaptation period, and measurements were taken during the last week of each period.
(§2) The four treatments were:
(§3) 1) High P diet. Dietary P at 0.47% (DM basis)
(§4) 2) Diet 1 plus 1-α-OHD3 (75 μg/cow/day)
(§5) 3) Low P diet. Dietary P at 0.35% (DM basis)
(§6) 4) Diet 3 plus 1-α-OHD3 (75 μg/cow/day).
The diets (Table 1) were fed ad libitum as a total mixed ration once daily. The cows were housed in individual tie stalls. Daily feed offered and refused was recorded for individual cows. Feed refusals were restricted to 10% of intake on an as-fed basis. Daily samples of silage and refusals were composited weekly for chemical analysis. Samples of individual feed ingredients were collected once weekly. The dry matter content of feed ingredients was determined by oven drying at 60° C. for 48 hr. Diet formulations were adjusted weekly, if necessary, to account for changes in dry matter content of diet ingredients. All of the feed ingredients were analyzed for chemical composition. Alfalfa and corn silage were analyzed weekly for neutral detergent fiber (NDF), acid detergent fiber (ADF), and crude protein (CP). High moisture ear corn (HMEC), soybean meal (SBM), roasted soybean meal (RSB), and blood meal (BM) were composited every four weeks (one sample per period) and analyzed for CP.
Feed DM digestibility was determined using Yb as an external marker. A Yb solution, prepared by dissolving 2.24 g of YbCl3 (1 g of Yb) in 30 ml of water was sprayed onto 500 g of alfalfa silage (DM basis). The Yb-marked alfalfa silage was mixed into the total mixed ration to give 40 mg of Yb/kg of dietary DM. The total mixed ration labeled with Yb was fed for nine days. During the last two days of Yb feeding (last two days of each period), eight fecal grab samples were collected from each cow at 7 am, 12 noon, 6 pm, and 11 pm on the first day and at 9 am, 3 pm, 9 pm, and 5 am on the second day. Fecal samples were dried at 60° C. for 72 h and ground through a 2-mm Wiley mill screen. Fecal samples were dry-ashed in duplicate (Combs and Satter, 1992). During the last four days of each period, feed refusals for each cow were collected and composited into one sample per cow per period. These samples were dry-ashed in the same way as feces, and analyzed for Yb. Concentrations of Yb (ppm) in feed, feed refusals, and fecal samples were determined by direct current plasma spectroscopy [(Combs and Satter, 1992); Spectra Metrics, Inc., subsidiary of Beckman Instruments, Inc., Andover, Mass.]. The DM digestibility (percentage) for individual cows was calculated as follows: DM digestibility (%)=(1-concentration of Yb in DM consumed/average concentration of Yb in each cow's fecal samples)100. Digestibility of dietary P in different treatments was calculated using P input-output data.

[2] = tested on: lactating dairy cows; test: Dairy cow efficacy trial: P and Ca concentrations in blood serum
Description: as §1, §2, §3, §4, §5, §6
(§7) Cows were weighed two days in a row before the trial started and two days in a row when it finished. Daily milk weights were recorded. All cows were injected with bovine somatotropin (Posilac®). Blood samples were collected on the last day of weeks 1, 2, and 3 of each period. During week 4, blood samples were obtained on each of the last three days. Blood was obtained 5 hours after feeding from the coccygeal vein or artery in a gel and clot co-activator vacutainer. Samples were centrifuged the next day to separate the serum. Inorganic phosphorus and calcium analyses were performed on serum samples by Marshfield Laboratories, Marshfield, Wis.

[3] = tested on: lactating dairy cows; test: Dairy cow efficacy trial: milk yield and milk composition
Description: as §1, §2, §3, §4, §5, §6, §7
(§8) During the last two days of each period, six urine samples were collected at 8 am, 4 pm, and 11 pm on the first day and 12 noon, 8 pm, and 6 am on the second day. Urine samples were then composited for phosphorus, calcium, and creatinine analysis. Creatinine was measured to enable an estimate of urine output. Milk samples were obtained during four days of each period. The milk sample was split; one-half was mixed with a preservative, and the other half was refrigerated without a preservative. The samples with preservative were analyzed for milk composition by Wisconsin Ag Source Milk Analysis Laboratory (Menomonie, Wis.), and the samples without preservative were composited according to milk yield and analyzed for mineral composition in the Soil and Plant Analysis Laboratory, Department of Soil Science, University of Wisconsin-Madison.

[4] = tested on: lactating dairy cows; test: Dairy cow efficacy trial: P and Ca concentrations in urine
Description: as §1, §2, §3, §4, §5, §6, §8

[5] = treatment 2: high P diet (0.47% P) plus 75 μg/cow/day
[6] = treatment 4: low P diet (0.35% P) plus 75 μg/cow/day
[7] = both the high- and low-P treatments, highly significant

C=C1/C(=C\C=C2/CCC[C@]3(C)[C@@H]([C@H](C)CCCC(C)C)CC[C@@H]23)C[C@@H](O)C[C@@H]1O [1-α-OHD3, 1α-hydroxyvitamin D3]
Reduction in fecal P excretion due to supplementation ([1]; 75 μg/cow/day): 14%
Reduction of phosphorus excretion in manure ([1]; both the high- and low-P treatments, 75 μg/cow/day): about 10 g per day
Effect on fecal P excretion ([1]; daily inclusion of 75 μg in the cows' diets): reduced
Effect on P uptake from the gut ([1]; evidenced by decreased fecal P and increased serum P): increased
Fecal DM P [1, 5]: 0.99%
Fecal P [1, 5]: 71.3 g/day
Milk and Fecal P [1, 5]: 109.5 g/day
Fecal DM P [1, 6]: 0.77%
Fecal P [1, 6]: 55.4 g/day
Milk and Fecal P [1, 6]: 93.8 g/day
Effect on concentration of Ca in blood serum [2, 7]: increase
Effect on concentration of P in blood serum [2, 7]: increase
Blood serum calcium [2, 5]: 10.32 mg/dL
Blood serum phosphorus [2, 5]: 8.77 mg/dL
Blood serum calcium [2, 6]: 10.14 mg/dL
Blood serum phosphorus [2, 6]: 7.63 mg/dL
Effect on milk production ([3]; supplementation of 75 μg): unaffected
Milk yield [3, 5]: 36.9 kg/day
Milk yield [3, 6]: 37.6 kg/day
Effect on calcium excretion via urine ([4]; 75 μg/cow/day): increased
Urinary P as share of dietary P intake ([4]; high-P treatment, at 5.15 mg P per dl of urine): about 2%
Urine calcium [4, 5]: 12.03 mg/dL
Urine phosphorus [4, 5]: 5.15 mg/dL
Urine calcium [4, 6]: 15.46 mg/dL
Urine phosphorus [4, 6]: 0.40 mg/dL
